# Measurements: patent US6355799B1, “Substituted benzene compounds, process for their preparation, and herbicidal and defoliant compositions containing them” (ISK Americas Incorporated, priority 1997, dated 2002)
# Assays:
# Type in all cases: in vivo
# [1] = test system: field corn (Zea mays L., var. Dekalb 535, CORN); test: Pre-emerge test, crop safety; conditions: rating scale 0-100, 14 days after application
# In short: (§1)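 Fourteen days after spraying, crop and weed injury was graded visually from 0, no effect, to 100, every plant dead. Test substances were dissolved in acetone and applied at 15–1000 g ai/ha with a flat-fan nozzle. Application was either pre-emergence, one day after sowing, or post-emergence at the 2–3 leaf stage.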
# [2] = test system: upland rice (Oryza sp., var. Tebonnet, RICE); test: Pre-emerge test, crop safety; conditions: rating scale 0-100, 14 days after application
# In short: as §1
# [3] = test system: barnyardgrass (Echinochloa crus-galli, ECHCG); test: Pre-emerge test, greenhouse herbicide activity screening; conditions: rating scale 0-100, 14 days after application
# In short: as §1
# [4] = test system: green foxtail (Setaria viridis, SETVI); test: as above; conditions: rating scale 0-100, 14 days after application
# In short: as §1
# [5] = test system: lambsquarters (Chenopodium album, CHEAL); test: as above; conditions: rating scale 0-100, 14 days after application
# In short: as §1
# [6] = test system: velvetleaf (Abutilon theophrasti, ABUTH); test: as above; conditions: rating scale 0-100, 14 days after application
# In short: as §1
# [7] = test system: ivyleaf morningglory (Ipomoea hederacea, IPOHE); test: as above; conditions: rating scale 0-100, 14 days after application
# In short: as §1
# [8] = test system: sicklepod (Cassia obtusifolia, CASOB); test: as above; conditions: rating scale 0-100, 14 days after application
# In short: as §1
# [9] = test system: large crabgrass (Digitaria sanguinalis, DIGSA); test: as above; conditions: rating scale 0-100, 14 days after application
# In short: as §1
# [10] = test system: johnsongrass (Sorghum halepense, SORHA); test: as above; conditions: rating scale 0-100, 14 days after application
# In short: as §1
# [11] = test system: field corn (Zea mays L., var. Dekalb 535, CORN); test: Post-emerge test, crop safety; conditions: rating scale 0-100 (0 no damage, 100 complete death), 14 days after application
# In short: as §1
# [12] = test system: upland rice (Oryza sp., var. Tebonnet, RICE); test: Post-emerge test, crop safety; conditions: rating scale 0-100 (0 no damage, 100 complete death), 14 days after application
# In short: as §1
# [13] = test system: barnyardgrass (Echinochloa crus-galli, ECHCG); test: Post-emerge test, greenhouse herbicide activity screening; conditions: rating scale 0-100 (0 no damage, 100 complete death), 14 days after application
# In short: (§2)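 Sandy loam pots; pre-emerge: sown 1 d pre-spray, surface-watered after, then bottom-watered. Post-emerge: sown 8–21 d before, 2–3 leaf stage, + 0.25% v/v NIS, bottom-watered. Acetone, 187 l/ha track spray, 15–1000 g ai/ha. 0–100 injury score, day 14.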
# [14] = test system: green foxtail (Setaria viridis, SETVI); test: as above; conditions: rating scale 0-100 (0 no damage, 100 complete death), 14 days after application
# In short: as §2
# [15] = test system: lambsquarters (Chenopodium album, CHEAL); test: as above; conditions: rating scale 0-100 (0 no damage, 100 complete death), 14 days after application
# In short: as §2
# [16] = test system: velvetleaf (Abutilon theophrasti, ABUTH); test: as above; conditions: rating scale 0-100 (0 no damage, 100 complete death), 14 days after application
# In short: as §2
# [17] = test system: ivyleaf morningglory (Ipomoea hederacea, IPOHE); test: as above; conditions: rating scale 0-100 (0 no damage, 100 complete death), 14 days after application
# In short: as §2
# [18] = test system: sicklepod (Cassia obtusifolia, CASOB); test: as above; conditions: rating scale 0-100 (0 no damage, 100 complete death), 14 days after application
# In short: as §2
# [19] = test system: large crabgrass (Digitaria sanguinalis, DIGSA); test: as above; conditions: rating scale 0-100 (0 no damage, 100 complete death), 14 days after application
# In short: as §2
# [20] = test system: common ragweed (Ambrosia artemisizfolia L., AMBEL); test: as above; conditions: rating scale 0-100 (0 no damage, 100 complete death), 14 days after application
# In short: as §2
# [21] = test system: johnsongrass (Sorghum halepense, SORHA); test: as above; conditions: rating scale 0-100 (0 no damage, 100 complete death), 14 days after application
# In short: as §2
# [22] = test system: redroot pigweed (Amaranthus retroflexus, AMARE); test: as above; conditions: rating scale 0-100 (0 no damage, 100 complete death), 14 days after application
# In short: as §2
# [23] = test system: redroot pigweed (Amaranthus retroflexus, AMARE); test: Pre-emerge test, greenhouse herbicide activity screening; conditions: rating scale 0-100, 14 days after application
# In short: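 Compounds in acetone were track-sprayed at 15-1000 g ai/ha (187 l/ha) on sandy loam pots: pre-emerge one day after seeding, post-emerge at 2-3 leaf stage with 0.25% v/v non-ionic surfactant. Phytotoxicity was rated 14 days later on a 0 (no damage) to 100 (complete death) scale.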
structure (smiles),measurement,setting,value
"CCCOC(=O)C(Cl)Cc1c(OC)c(Cl)cc(F)c1-n1c(=O)cc(C(F)(F)F)n(C)c1=O (single isomer, unassigned) [14-6]","Pre-emerge phytotoxicity rating, crop damage CORN",[1]; 63 g ai/ha,0
same,"Pre-emerge phytotoxicity rating, crop damage CORN",[1]; 250 g ai/ha,5
same,"Pre-emerge phytotoxicity rating, crop damage RICE",[2]; 63 g ai/ha,15
same,"Pre-emerge phytotoxicity rating, crop damage RICE",[2]; 250 g ai/ha,50
same,"Pre-emerge herbicidal activity, phytotoxicity rating ECHCG",[3]; 63 g ai/ha,0
same,"Pre-emerge herbicidal activity, phytotoxicity rating ECHCG",[3]; 250 g ai/ha,70
same,"Pre-emerge herbicidal activity, phytotoxicity rating SETVI",[4]; 63 g ai/ha,10
same,"Pre-emerge herbicidal activity, phytotoxicity rating SETVI",[4]; 250 g ai/ha,100
same,"Pre-emerge herbicidal activity, phytotoxicity rating CHEAL",[5]; 63 g ai/ha,20
same,"Pre-emerge herbicidal activity, phytotoxicity rating CHEAL",[5]; 250 g ai/ha,100
same,"Pre-emerge herbicidal activity, phytotoxicity rating ABUTH",[6]; 63 g ai/ha,30
same,"Pre-emerge herbicidal activity, phytotoxicity rating ABUTH",[6]; 250 g ai/ha,100
same,"Pre-emerge herbicidal activity, phytotoxicity rating IPOHE",[7]; 63 g ai/ha,10
same,"Pre-emerge herbicidal activity, phytotoxicity rating IPOHE",[7]; 250 g ai/ha,20
same,"Pre-emerge herbicidal activity, phytotoxicity rating CASOB",[8]; 63 g ai/ha,30
same,"Pre-emerge herbicidal activity, phytotoxicity rating CASOB",[8]; 250 g ai/ha,30
same,"Pre-emerge herbicidal activity, phytotoxicity rating DIGSA",[9]; 63 g ai/ha,90
same,"Pre-emerge herbicidal activity, phytotoxicity rating DIGSA",[9]; 250 g ai/ha,100
same,"Pre-emerge herbicidal activity, phytotoxicity rating SORHA",[10]; 63 g ai/ha,0
same,"Pre-emerge herbicidal activity, phytotoxicity rating SORHA",[10]; 250 g ai/ha,30
same,Post-emerge phytotoxicity rating CORN (crop damage),[11]; Rate 63 g ai/ha,50
same,Post-emerge phytotoxicity rating CORN (crop damage),[11]; Rate 250 g ai/ha,60
same,Post-emerge phytotoxicity rating RICE (crop damage),[12]; Rate 63 g ai/ha,0
same,Post-emerge phytotoxicity rating RICE (crop damage),[12]; Rate 250 g ai/ha,35
same,"Post-emerge Herbicidal Activity, phytotoxicity rating ECHCG",[13]; Rate 63 g ai/ha,99
same,"Post-emerge Herbicidal Activity, phytotoxicity rating ECHCG",[13]; Rate 250 g ai/ha,100
same,"Post-emerge Herbicidal Activity, phytotoxicity rating SETVI",[14]; Rate 63 g ai/ha,30
same,"Post-emerge Herbicidal Activity, phytotoxicity rating SETVI",[14]; Rate 250 g ai/ha,80
same,"Post-emerge Herbicidal Activity, phytotoxicity rating CHEAL",[15]; Rate 63 g ai/ha,80
same,"Post-emerge Herbicidal Activity, phytotoxicity rating CHEAL",[15]; Rate 250 g ai/ha,100
same,"Post-emerge Herbicidal Activity, phytotoxicity rating ABUTH",[16]; Rate 63 g ai/ha,90
same,"Post-emerge Herbicidal Activity, phytotoxicity rating ABUTH",[16]; Rate 250 g ai/ha,100
same,"Post-emerge Herbicidal Activity, phytotoxicity rating IPOHE",[17]; Rate 63 g ai/ha,70
same,"Post-emerge Herbicidal Activity, phytotoxicity rating IPOHE",[17]; Rate 250 g ai/ha,100
same,"Post-emerge Herbicidal Activity, phytotoxicity rating CASOB",[18]; Rate 63 g ai/ha,50
same,"Post-emerge Herbicidal Activity, phytotoxicity rating CASOB",[18]; Rate 250 g ai/ha,100
same,"Post-emerge Herbicidal Activity, phytotoxicity rating DIGSA",[19]; Rate 63 g ai/ha,50
same,"Post-emerge Herbicidal Activity, phytotoxicity rating DIGSA",[19]; Rate 250 g ai/ha,75
same,"Post-emerge Herbicidal Activity, phytotoxicity rating AMBEL",[20]; Rate 63 g ai/ha,40
same,"Post-emerge Herbicidal Activity, phytotoxicity rating AMBEL",[20]; Rate 250 g ai/ha,80
same,"Post-emerge Herbicidal Activity, phytotoxicity rating SORHA",[21]; Rate 63 g ai/ha,50
same,"Post-emerge Herbicidal Activity, phytotoxicity rating SORHA",[21]; Rate 250 g ai/ha,65
same,"Post-emerge Herbicidal Activity, phytotoxicity rating AMARE",[22]; Rate 63 g ai/ha,95
same,"Post-emerge Herbicidal Activity, phytotoxicity rating AMARE",[22]; Rate 250 g ai/ha,100
same,"Pre-emerge herbicidal activity, phytotoxicity rating AMARE",[23]; 63 g ai/ha,100
same,"Pre-emerge herbicidal activity, phytotoxicity rating AMARE",[23]; 250 g ai/ha,100
